Assay results taken from ChEMBL document CHEMBL1201862, “PubChem BioAssay data set” (2004).
Activity calls are given as the source filed them.

Assays:
[1] = target: T1, Alkaline phosphatase, tissue-nonspecific isozyme (Homo sapiens, UniProt P05186)
T1 sequence (P05186 whole entry): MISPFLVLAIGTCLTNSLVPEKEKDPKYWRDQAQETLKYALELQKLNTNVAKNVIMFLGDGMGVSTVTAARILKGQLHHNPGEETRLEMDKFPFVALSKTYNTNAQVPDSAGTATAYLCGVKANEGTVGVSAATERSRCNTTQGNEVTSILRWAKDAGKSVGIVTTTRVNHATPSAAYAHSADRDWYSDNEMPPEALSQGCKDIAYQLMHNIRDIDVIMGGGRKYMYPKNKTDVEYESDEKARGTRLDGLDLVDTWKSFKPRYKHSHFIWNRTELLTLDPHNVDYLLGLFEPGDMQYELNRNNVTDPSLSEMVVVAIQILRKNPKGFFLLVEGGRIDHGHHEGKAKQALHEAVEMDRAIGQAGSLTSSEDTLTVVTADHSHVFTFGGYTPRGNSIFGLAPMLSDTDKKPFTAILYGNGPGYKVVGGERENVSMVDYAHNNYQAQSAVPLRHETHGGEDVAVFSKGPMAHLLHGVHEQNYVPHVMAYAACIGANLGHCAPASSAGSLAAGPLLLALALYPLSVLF

[2] = target: T2, Short transient receptor potential channel 4 (Mus musculus, UniProt Q9QUQ5); experiment: calcium entry via TRPC4 opening agents – cell-based, HEK293 TRPC4/mu-opioid, Fluo-4 calcium, dose response (AID 434937); type: functional
T2 sequence (Q9QUQ5 whole entry): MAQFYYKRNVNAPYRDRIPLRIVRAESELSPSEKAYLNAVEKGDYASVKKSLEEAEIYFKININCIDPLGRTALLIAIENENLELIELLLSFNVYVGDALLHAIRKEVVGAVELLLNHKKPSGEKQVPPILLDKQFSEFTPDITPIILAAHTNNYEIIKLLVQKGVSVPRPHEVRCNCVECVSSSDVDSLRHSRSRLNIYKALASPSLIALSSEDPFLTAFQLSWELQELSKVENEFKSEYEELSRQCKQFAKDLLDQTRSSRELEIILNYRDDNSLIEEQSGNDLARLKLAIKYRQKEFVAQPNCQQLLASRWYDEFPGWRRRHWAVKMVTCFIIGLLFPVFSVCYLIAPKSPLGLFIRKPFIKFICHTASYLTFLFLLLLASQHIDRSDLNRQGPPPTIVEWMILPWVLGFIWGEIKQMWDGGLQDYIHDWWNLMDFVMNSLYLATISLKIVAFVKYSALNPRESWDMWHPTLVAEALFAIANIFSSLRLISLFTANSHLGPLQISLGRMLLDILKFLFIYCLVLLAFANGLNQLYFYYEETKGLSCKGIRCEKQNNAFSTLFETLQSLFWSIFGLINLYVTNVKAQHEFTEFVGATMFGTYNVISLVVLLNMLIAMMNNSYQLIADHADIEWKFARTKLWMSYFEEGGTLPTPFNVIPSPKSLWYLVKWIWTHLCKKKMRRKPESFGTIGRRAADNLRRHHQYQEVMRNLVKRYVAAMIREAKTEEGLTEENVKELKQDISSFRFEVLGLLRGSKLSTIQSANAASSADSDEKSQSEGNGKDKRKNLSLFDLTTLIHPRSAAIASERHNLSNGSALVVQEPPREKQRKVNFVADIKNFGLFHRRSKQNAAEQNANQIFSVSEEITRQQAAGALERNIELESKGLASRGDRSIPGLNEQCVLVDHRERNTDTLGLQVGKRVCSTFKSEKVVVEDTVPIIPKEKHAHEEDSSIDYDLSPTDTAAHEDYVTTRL

[3] = fluconazole-exposed Candida albicans growth modulators – fluorescence, retest, confirmation (AID 2467); type: functional, cell-based
[4] = antiviral protection against BTV-induced cell death – arbovirus, BSR cells, confirmation (AID 1250); type: functional;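 note: protection from viral cytopathic effect measured as cell viability by ATP luminescence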
[5] = NIH-3T3 fibroblast cytotoxicity, dose response, cytotoxicity control, cell-based, fluorescence, Alamar Blue, secondary assay (AID 2327); type: functional;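 note: NIH-3T3 mouse fibroblasts cultured with fluconazole at 8 µg/mL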
Cytochrome P450 2D6 [6] = target: T3, Cytochrome P450 2D6 (Homo sapiens, UniProt P10635); experiment: qHTS Assay for Inhibitors and Substrates of Cytochrome P450 2D6. [Related pubchem assays: 410 ]; type: ADME; details: read-out: Potency
T3 sequence (P10635 whole entry): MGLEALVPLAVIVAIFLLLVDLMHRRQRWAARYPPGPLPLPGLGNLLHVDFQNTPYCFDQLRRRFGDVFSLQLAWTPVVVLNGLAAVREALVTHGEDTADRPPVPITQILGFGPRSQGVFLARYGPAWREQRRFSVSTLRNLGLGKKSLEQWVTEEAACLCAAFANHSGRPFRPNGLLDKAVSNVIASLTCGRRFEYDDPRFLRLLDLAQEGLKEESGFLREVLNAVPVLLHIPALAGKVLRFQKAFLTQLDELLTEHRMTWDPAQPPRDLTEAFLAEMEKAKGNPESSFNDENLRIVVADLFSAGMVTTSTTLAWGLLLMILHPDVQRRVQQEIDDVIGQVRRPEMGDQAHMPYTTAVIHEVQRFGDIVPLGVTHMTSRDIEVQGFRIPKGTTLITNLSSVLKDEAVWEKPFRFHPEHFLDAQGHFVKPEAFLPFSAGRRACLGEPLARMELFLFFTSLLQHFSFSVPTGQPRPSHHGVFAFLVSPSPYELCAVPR

Cytochrome P450 2D6 [7] = target: T3, Cytochrome P450 2D6
[8] = target: Sphingosine 1-phosphate receptor 2 (Homo sapiens, UniProt O95136); experiment: Dose Response Cell Based Assay for Agonists of the S1P2 Receptor of Purchased Analogues. [Related pubchem assays: 729, 843, 854, 736 ]; type: functional
Chain of Sphingosine 1-phosphate receptor 2 (O95136 whole entry): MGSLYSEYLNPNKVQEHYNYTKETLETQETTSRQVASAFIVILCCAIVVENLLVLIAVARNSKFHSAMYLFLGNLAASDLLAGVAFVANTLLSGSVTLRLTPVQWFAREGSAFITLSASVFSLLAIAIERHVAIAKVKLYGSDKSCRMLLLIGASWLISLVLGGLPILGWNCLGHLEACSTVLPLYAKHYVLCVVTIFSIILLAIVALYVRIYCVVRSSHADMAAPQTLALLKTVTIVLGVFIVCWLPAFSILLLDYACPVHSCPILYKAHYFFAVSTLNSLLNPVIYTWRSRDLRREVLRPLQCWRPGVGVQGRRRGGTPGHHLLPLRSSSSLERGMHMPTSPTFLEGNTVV

Bcl-2-like protein 10 = target: T4, Bcl-2-like protein 10 (Homo sapiens, UniProt Q9HD36); experiment: Bcl-B/TR3 peptide binding disruption – biochemical, fluorescence polarization, FITC-TR3 peptide, selectivity assay for Bfl-1 inhibitor project, primary screen (AID 748);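 note: fluorescence polarization from a fluorescein-labelled TR3 peptide binding purified Bcl-B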
T4 sequence (Q9HD36 whole entry): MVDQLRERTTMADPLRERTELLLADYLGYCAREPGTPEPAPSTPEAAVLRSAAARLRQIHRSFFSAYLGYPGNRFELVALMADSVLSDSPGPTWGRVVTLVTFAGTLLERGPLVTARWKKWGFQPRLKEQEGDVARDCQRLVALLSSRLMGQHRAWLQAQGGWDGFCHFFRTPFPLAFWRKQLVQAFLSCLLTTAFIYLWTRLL

[9] = target: Voltage-gated inwardly rectifying potassium channel KCNH2 (Homo sapiens, UniProt Q12809); experiment: concentration-dependent hERG rescue from blockers – cell-based, thallium flux, dose response (AID 2121); type: ADME
Chain of Voltage-gated inwardly rectifying potassium channel KCNH2 (Q12809 whole entry): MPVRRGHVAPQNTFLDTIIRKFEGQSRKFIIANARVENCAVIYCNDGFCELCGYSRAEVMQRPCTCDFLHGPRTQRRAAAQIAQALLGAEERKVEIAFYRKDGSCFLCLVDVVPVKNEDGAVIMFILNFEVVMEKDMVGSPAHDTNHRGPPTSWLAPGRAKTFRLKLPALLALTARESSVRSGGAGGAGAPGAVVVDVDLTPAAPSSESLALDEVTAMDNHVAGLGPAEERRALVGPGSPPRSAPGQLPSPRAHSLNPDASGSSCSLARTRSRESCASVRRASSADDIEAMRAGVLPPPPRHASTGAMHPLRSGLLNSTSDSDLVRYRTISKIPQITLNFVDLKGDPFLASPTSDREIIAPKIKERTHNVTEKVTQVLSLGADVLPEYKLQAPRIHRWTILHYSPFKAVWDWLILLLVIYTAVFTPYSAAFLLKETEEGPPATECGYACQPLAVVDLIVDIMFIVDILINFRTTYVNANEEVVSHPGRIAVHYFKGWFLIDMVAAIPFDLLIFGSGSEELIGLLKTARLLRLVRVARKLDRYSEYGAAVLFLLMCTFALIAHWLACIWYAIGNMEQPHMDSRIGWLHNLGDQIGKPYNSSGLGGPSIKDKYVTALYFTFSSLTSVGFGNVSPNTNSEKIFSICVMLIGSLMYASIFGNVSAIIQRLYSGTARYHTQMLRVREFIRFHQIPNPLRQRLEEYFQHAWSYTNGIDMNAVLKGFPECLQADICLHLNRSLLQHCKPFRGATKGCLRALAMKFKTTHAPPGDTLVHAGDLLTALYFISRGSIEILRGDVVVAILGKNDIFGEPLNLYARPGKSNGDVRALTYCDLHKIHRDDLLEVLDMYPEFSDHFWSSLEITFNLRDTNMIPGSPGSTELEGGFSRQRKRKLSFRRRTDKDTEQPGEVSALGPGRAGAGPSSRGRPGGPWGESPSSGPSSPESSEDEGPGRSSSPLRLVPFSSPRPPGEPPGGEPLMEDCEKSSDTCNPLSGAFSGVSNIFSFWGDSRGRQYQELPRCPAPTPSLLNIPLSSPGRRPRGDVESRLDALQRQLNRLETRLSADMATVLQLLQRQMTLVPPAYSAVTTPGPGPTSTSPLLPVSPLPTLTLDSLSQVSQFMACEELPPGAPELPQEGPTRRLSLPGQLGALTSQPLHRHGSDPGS

HEK293 [10] = experiment: inhibition of NOD1-driven NF-kB reporter – cell-based, luminescence, uHTS, primary screen (AID 1578); type: functional; details: Homo sapiens
HEK293 [11] = experiment: cells; type: functional, cell-based; details: Homo sapiens
HEK293 [12] = experiment: NOD2 signaling inhibitors in MDP-stimulated cells, cell-based, uHTS, luminescence (AID 2001); type: functional; details: Homo sapiens
HEK293 [13] = experiment: cells; type: functional, cell-based; details: Homo sapiens; remark: listed apart in the source
Vero [14] = experiment: host cell viability loss, Vero E6 – synthesized analogs, cytotoxicity control for West Nile virus antiviral project, SAR follow-up (AID 2244); type: functional; details: Chlorocebus sabaeus
Vero [15] = experiment: Vero cell viability after compound exposure – synthesized analogs, set II, cytotoxicity control for West Nile virus antiviral project, SAR follow-up (AID 2402); type: functional; details: Chlorocebus sabaeus
Vero [16] = experiment: Vero 76 cell viability after compound exposure – Vero 76 cells, synthesized analogs, cytotoxicity control for West Nile virus antiviral project, SAR follow-up (AID 2414); type: functional; details: Chlorocebus sabaeus
HeLa = experiment: viability loss in HeLa cells – cell-based, 24 h, cherry-picked samples, cytotoxicity control, dose response (AID 504726); type: functional; details: Homo sapiens;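 note: potency for cytotoxicity as loss of luminescence signal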
Salmon testes DNA = experiment: acridine orange-DNA binding displacement – biochemical, fluorescence polarization, cherry-picked samples, set 2, artefact control for KSHV LANA DNA-binding inhibitor project, dose response (AID 504727); set-up: species or system Salmonidae

COc1ccc(-n2cc(CNCCc3nc(C)c[nH]3)c(-c3ccccc3Cl)n2)cc1
EC50 [1]: 66.1 µM (not active)
EC50 [2]: 5.96 µM (active)

Cc1ccc2nc(-c3ccccc3Cl)cc(C(=O)Nc3cc(C)on3)c2c1
EC50 [3]: 3.33 µM (active)
IC50 [4]: 45.5 µM (active)
EC50 [5]: > 160 µM (inactive)

COc1ccc(C[C@H]2c3cc(OC)c(OC)cc3CCN2C)cc1OC
AC50 (Cytochrome P450 2D6 [6]): 12.6 µM (inconclusive)
AC50 (Cytochrome P450 2D6 [7]): 6.31 µM (inconclusive)

Cc1cc(C(=O)CN2CCN(C(=O)c3ccco3)CC2)c(C)n1Cc1ccccc1
EC50 [8]: > 30 µM (not active)

O=C1NC(=O)[C@]2(Cc3ccccc3N3CCN(c4ccccc4)CC32)C(=O)N1c1ccccc1 (stereo not given in full)
IC50 (Bcl-2-like protein 10): 54 µM (inactive)

CSC(=S)N/N=C/c1ccc(Br)cc1
EC50 [9]: 0.3 µM (active)
EC50 (HEK293 [10]): > 20 µM (inactive)
IC50 (HEK293 [11]): > 20 µM (inactive)
IC50 (HEK293 [12]): 14.2 µM (inactive)
IC50 (HEK293 [13]): > 20 µM (inactive)

O=C(CSc1nc2ccccc2c(=O)n1-c1ccc(F)cc1)Nc1cccc2ccccc12
CC50 (Vero [14]): > 40 µM (active)
CC50 (Vero [15]): > 100 µM (active)
CC50 (Vero [16]): > 66.6 µM (active)

CC(CCc1ccccc1)NC(=O)c1cc2sccc2n1C (stereo not given)
IC50 [4]: > 100 µM (active)

Cc1nnc2sc(-c3csc4c3CCCC4)nn12
AC50 (HeLa): 26.3 µM (active)
AC50 (Salmon testes DNA): 73.6 µM (active)
